# Patent US7981912B2, “Indole acetic acids exhibiting CRTH2 receptor antagonism and uses thereof” (Wyeth LLC, priority 2004, dated 2011)
# Target: T1, human CRTH2 (Homo sapiens, UniProt Q9Y5Y4)
# T1 sequence (Q9Y5Y4 1-395): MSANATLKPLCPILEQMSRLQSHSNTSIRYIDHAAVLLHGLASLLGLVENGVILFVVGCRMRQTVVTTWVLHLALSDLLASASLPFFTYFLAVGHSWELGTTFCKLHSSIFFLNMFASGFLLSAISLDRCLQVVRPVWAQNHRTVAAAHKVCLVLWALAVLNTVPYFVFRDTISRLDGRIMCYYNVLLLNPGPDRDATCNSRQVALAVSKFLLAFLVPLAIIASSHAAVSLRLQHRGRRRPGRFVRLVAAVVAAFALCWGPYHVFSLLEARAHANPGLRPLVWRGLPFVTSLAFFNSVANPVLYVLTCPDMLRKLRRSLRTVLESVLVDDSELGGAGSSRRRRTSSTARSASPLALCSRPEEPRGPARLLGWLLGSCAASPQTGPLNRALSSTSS
# Test: CRTH-2 binding assay (scintillation proximity assay, inhibition of 3H-PGD2 binding)
# Parameters: expressed in transfected cells; host or cells: HEK 293EBNA-hCRTH2 (membrane preparation)
# Settings: inhibition of 3H-PGD2 (3.6 nM) binding to HEK 293EBNA-hCRTH2 membranes; Ki calculated from IC50
# Experimental: A CRTH2 binding assay was developed to measure the ability of compounds to inhibit the binding of PGD2 to human CRTH2 using a scintillation proximity assay.
# Membranes containing hCRTH2 receptors were prepared from HEK 293EBNA-hCRTH2 cells (a HEK 293EBNA cell line stably expressing human CRTH2). The cells were grown to confluency, harvested and washed with PBS. The cells were resuspended in 10 mM Hepes pH 7.4, 1 mM EDTA and protease inhibitors and incubated for 30 min on ice. The cells were homogenized and centrifuged for 10 min at 1000×g. The supernate was centrifuged for 30 min at 100,000×g and the membrane pellet was then resusupended in 10 mM Hepes pH 7.4 and 1 mM EDTA. The protein concentration of the membrane preparation was determined by Bradford assay (Bio-Rad).
# The ability of compounds to inhibit the interaction of PGD2 to human CRTH2 was determined at seven compound concentrations. Compounds were serially diluted in DMSO then diluted into CRTH2 buffer without glycerol (10 mM Hepes pH 7.4, 1 mM EDTA, 10 mM MnCl2) to six times the final desired concentration. 20 μL of the diluted compounds were transferred into non-surface binding 96 well plates (Corning). Each concentration was done in triplicate. In addition to test compounds, each plate contained 12 control wells. Six of these wells contained 20 μL of CRTH2 buffer without glycerol. These wells were used to measure total binding. Six wells contained 20 μL of CRTH2 buffer without glycerol plus 1.5 mM indomethacin. These wells were used to measure non-specific binding. Next, HEK 293EBNA-hCRTH2 membranes were resuspended in CRTH2 buffer with glycerol (10 mM Hepes pH 7.4, 1 mM EDTA, 10 mM MnCl2, 25% glycerol) so that the final concentration was approximately 20 μg protein/100 μL. Polylysine coated yttrium silicate SPA beads (Amershamn) were added to the membrane mix to a concentration of 0.4 mg/100 μL and finally ^3H-PGD2 was added to the membrane/SPA bead mix to 3.6 nM. 100 μL of the membrane/SPA bead/^3H-PGD2 mix was added to each well of the non-surface binding plates containing the diluted compound plus controls. The plates were incubated for 2 hours at room temperature with shaking and then the plates were counted on a Microbeta scintillation counter (Perkin Elmer) for 1 min per well.
# IC50 values were determined from the experimental results by nonlinear regression using Prism 4.0 software. The IC50 values were then used in conjunction with the […] for hCRTH2 and the ^3H-PGD2 concentration used in the experiment to calculate the Ki for each compound.
row,Ki [µM],Compound
1,> 10,"CN1C(=O)c2ccccc2C1c1cn(CC(=O)O)c2ccccc12 (centres unmarked) [Example 20, [3-(2-Methyl-3-oxo-2,3-dihydro-1H-isoindol-1-yl)-indol-1-yl]-acetic acid]"
2,< 1,"Cc1c(C2=NN(Cc3cccc(Cl)c3)S(=O)(=O)c3ccccc32)c2cc(F)ccc2n1CC(=O)O [Example 77, {3-[2-(3-Chloro-benzyl)-1,1-dioxo-1,2-dihydro-1λ^6-benzo[e][1,2,3]thiadiazrn-4-yl]-5-fluoro-2-methyl-indol-1-yl}-acetic acid]"
3,< 10,"CN1C(c2cn(CC(=O)O)c3ccccc23)c2ccccc2S1(=O)=O (centres unmarked) [Example 14, [3-(2-Methyl-1,1-dioxo-2,3-dihydro-1H-1λ^6-benzo[d]isothiazol-3-yl)-indol-1-yl]-acetic acid]"
4,< 10,"CC(C)CCN1C(c2cn(CC(=O)O)c3ccccc23)c2ccccc2S1(=O)=O (centres unmarked) [Example 29, {3-[2-(3-Methyl-butyl)-1,1-dioxo-2,3-dihydro-1H-1λ^6-benzo[d]isothiazol-3-yl]-indol-1-yl}-acetic acid]"
5,< 0.1,"Cc1c(C2=NN(Cc3cccc(F)c3)S(=O)(=O)c3ccccc32)c2cc(F)ccc2n1CC(=O)O [Example 82, {3-[2-(3-Fluoro-benzyl)-1,1-dioxo-1,2-dihydro-1λ^6-benzo[e][1,2,3]thiadiazin-4-yl]-5-fluoro-2-methyl-indol-1-yl}-acetic acid]"
6,< 0.1,"Cc1c(C2=NN(CCC(C)C)S(=O)(=O)c3ccccc32)c2ccccc2n1CC(=O)O [Example 23, {2-Methyl-3-[2-(3-methyl-butyl)-1,1-dioxo-1,2-dihydro-1λ^6-benzo[e][1,2,3]thiadiazin-4-yl]-indol-1-yl}-acetic acid]"
7,< 0.1,"Cc1c(-c2nn(Cc3nc4ccccc4s3)c(=O)c3ccccc23)c2cc(Cl)ccc2n1CC(=O)O [Example 26, [3-(3-Benzothiazol-2-ylmethyl-4-oxo-3,4-dihydro-phthalazin-1-yl)-5-chloro-2-methyl-indol-1-yl]-acetic acid]"
8,< 1,"CCCCN1N=C(c2c(C)n(CC(=O)O)c3ccccc23)[C@H]2CC=CC[C@H]2C1=O (stereo in doubt) [Example 70, [3-(3-Butyl-4-oxo-3,4,4a,5,8,8a-hexahydro-phthalazin-1-yl)-2-methyl-indol-1-yl]-acetic acid]"
9,< 10,"O=C(O)Cn1cc(C2c3ccccc3S(=O)(=O)N2Cc2ccccc2)c2ccccc21 (centres unmarked) [Example 28, [3-(2-Benzyl-1,1-dioxo-2,3-dihydro-1H-1λ^6-benzo[d]isothiazol-3-yl)-indol-1-yl]-acetic acid]"
10,< 0.1,"Cc1c(C2c3ccc(F)cc3S(=O)(=O)N2CCc2ccccc2)c2ccccc2n1CC(=O)O (centres unmarked) [Example 64, [3-(6-Fluoro-1,1-dioxo-2-phenethyl-2,3-dihydro-1H-1λ^6-benzo[d]isothiazol-3-yl)-2-methyl-indol-1-yl]-acetic acid]"
11,< 10,"Cc1c(C2c3ccccc3S(=O)(=O)N2CCO)c2ccccc2n1CC(=O)O (centres unmarked) [Example 38, {3-[2-(2-Hydroxy-ethyl)-1,1-dioxo-2,3-dihydro-1H-1λ^6-benzo[d]isothiazol-3-yl]-2-methyl-indol-1-yl}-acetic acid]"
12,< 10,"Cc1ccc2c(c1)c(C1c3ccccc3S(=O)(=O)N1CCCOCc1ccccc1)cn2CC(=O)O (centres unmarked) [Example 50, {3-[2-(3-Benzyloxy-propyl)-1,1-dioxo-2,3-dihydro-1H-1λ^6-benzo[d]isothiazol-3-yl]-5-methyl-indol-1-yl}-acetic acid]"
13,< 0.1,"Cc1noc(C)c1CN1C(C)(c2c(C)n(CC(=O)O)c3ccccc23)c2ccccc2S1(=O)=O (centres unmarked) [Example 65, {3-[2-(3,5-Dimethyl-isoxazol-4-ylmethyl)-3-methyl-1,1-dioxo-2,3-dihydro-1H-1λ^6-benzo[d]isothiazol-3-yl]-2-methyl-indol-1-yl}-acetic acid]"
14,< 1,"Cc1c(C2c3ccccc3S(=O)(=O)N2C(C)C)c2ccccc2n1CC(=O)O (centres unmarked) [Example 47, [3-(2-Isopropyl-1,1-dioxo-2,3-dihydro-1H-1λ^6-benzo[d]isothiazol-3-yl)-2-methyl-indol-1-yl]-acetic acid]"
15,< 10,"O=C(O)Cn1cc(C2c3ccccc3S(=O)(=O)N2Cc2ccc3ccccc3n2)c2ccccc21 (centres unmarked) [Example 30, [3-(1,1-Dioxo-2-quinolin-2-ylmethyl-2,3-dihydro-1H-1λ^6-benzo[d]isothiazol-3-yl)-indol-1-yl]-acetic acid]"
16,< 0.1,"Cc1c(C2=NN(C(C)C)S(=O)(=O)c3ccccc32)c2cc(F)ccc2n1CC(=O)O [Example 93, [3-(2-Isopropyl-1,1-dioxo-1,2-dihydro-1λ^6-benzo[e][1,2,3]thiadiazin-4-yl)-5-fluoro-2-methyl-indol-1-yl]-acetic acid]"
17,< 0.1,"Cc1c(C2=NN(Cc3ccccc3Cl)S(=O)(=O)c3ccccc32)c2cc(F)ccc2n1CC(=O)O [Example 76, {3-[2-(2-Chloro-benzyl)-1,1-dioxo-1,2-dihydro-1λ^6-benzo[e][1,2,3]thiadiazin-4-yl]-5-fluoro-2-methyl-indol-1-yl}-acetic acid]"
18,< 1,"Cc1c(C2c3ccc(F)cc3S(=O)(=O)N2Cc2cccc(F)c2)c2ccccc2n1CC(=O)O (centres unmarked) [Example 63, {3-[6-Fluoro-2-(3-fluoro-benzyl)-1,1-dioxo-2,3-dihydro-1H-1λ^6benzo[d]isothiazol-3-yl]-2-methyl-indol-1-yl}-acetic acid]"
19,< 1,"Cc1c(C2NS(=O)(=O)c3ccccc32)c2cc(Cl)ccc2n1CC(=O)O (centres unmarked) [Example 6, [5-Chloro-3-(1,1-dioxo-2,3-dihydro-1H-1λ^6-benzo[d]isothiazol-3-yl)-2-methyl-indol-1-yl]-acetic acid]"
20,< 1,"O=C(O)Cn1cc(C2c3ccccc3S(=O)(=O)N2Cc2cccc(Oc3ccc(F)cc3)c2)c2ccccc21 (centres unmarked) [Example 31, (3-{2-[3-(4-Fluoro-phenoxy)-benzyl]-1,1-dioxo-2,3-dihydro-1H-1λ^6benzo[d]isothiazol-3-yl}-indol-1-yl)-acetic acid]"
21,< 10,"Cc1ccc2c(c1)c(C1c3ccccc3S(=O)(=O)N1C(C)C#N)cn2CC(=O)O (centres unmarked) [Example 53, {3-[2-(Cyano-methyl-methyl)-1,1-dioxo-2,3-dihydro-1H-1λ^6-benzo[d]isothiazol-3-yl]-5-methyl-indol-1-yl}-acetic acid]"
22,< 1,"COc1cccc(CN2N=C(c3c(C)n(CC(=O)O)c4ccc(F)cc34)c3ccccc3S2(=O)=O)c1 [Example 79, {3-[2-(3-Methoxy-benzyl)-1,1-dioxo-1,2-dihydro-1λ^6-benzo[e][1,2,3]thiadiazin-4-yl]-5-fluoro-2-methyl-indol-1-yl}-acetic acid]"
23,< 1,"Cc1c(C2=NN(CCOc3ccc(Cl)cc3)S(=O)(=O)c3ccccc32)c2cc(F)ccc2n1CC(=O)O [Example 89, (3-{2-[2-(4-Chloro-phenoxy)-ethyl]-1,1-dioxo-1,2-dihydro-1λ^6-benzo[e][1,2,3]thiadiazin-4-yl}-5-fluoro-2-methyl-indol-1-yl)-acetic acid]"
24,< 10,"COc1ccc2c(c1)c(C1c3ccccc3S(=O)(=O)N1C(C)Cc1ccccc1)cn2CC(=O)O (centres unmarked) [Example 56, {5-Methoxy-3-[2-(1-methyl-2-phenyl-ethyl)-1,1-dioxo-2,3-dihydro-1H-1λ^6-benzo[d]isothiazol-3-yl]-indol-1-yl}-acetic acid]"
25,< 10,"COc1ccc2c(c1)c(C1c3ccccc3S(=O)(=O)N1CCc1ccccc1)cn2CC(=O)O (centres unmarked) [Example 55, [3-(1,1-Dioxo-2-phenethyl-2,3-dihydro-1H-1λ^6-benzo[d]isothiazol-3-yl)-5-methoxy-indol-1-yl]-acetic acid]"
26,< 1,"Cc1c(C2c3ccccc3S(=O)(=O)N2c2ccccc2)c2ccccc2n1CC(=O)O (centres unmarked) [Example 74, [3-(1,1-Dioxo-2-phenyl-2,3-dihydro-1H-1λ^6-benzo[d]isothiazol-3-yl)-2-methyl-indol-1-yl]-acetic acid]"
